Measured values reported in patent US8410066B2, “Heterobifunctional inhibitors of E-selectins and CXCR4 chemokine receptors” (GlycoMimetics, Inc., priority 2009, dated 2013).
pIC50: −log10 of the molar value.

Columns and labels:
[1] = biological target: T1, CXCR4 on the surface of SupT1 cells (Homo sapiens, UniProt P61073); test: Inhibition of binding of anti-CXCR4-PE antibody to CXCR4 on SupT1 cells (flow cytometry); settings: for % positive / Mean fluorescence intensity / Median fluorescence intensity: anti-CXCR4-PE
T1 construct: constitutively express CXCR4 on the cell surface; host or cells: SupT1 cells
Text: The assay assesses the ability of glycomimetic compounds to inhibit binding of an anti-CXCR4 antibody conjugated to phycoerythrin (“PE”), to CXCR4 on the surface of SupT1 cells. SupT1 cells are a T lymphoblast derived from a lymphoblastic leukemia and constitutively express CXCR4 on the cell surface. The cells are purchased from ATCC (ATCC number CRL-1942). Anti-human CXCR4-phycoerythrin monoclonal antibody (anti-CXCR4-PE) is purchased from R&D Systems (catalog number FAB170P, clone 12G5). The cells are grown in RPMI 1640 medium supplemented with 10% FBS. Approximately 2×10^6 cells are washed three times by centrifuging the cells at 400×g for 10 minutes and the cell pellet is resuspended in PBS plus 0.05% BSA. After the third centrifugation, the cell pellet is resuspended in PBS plus BSA to a concentration of 5×10^5 cells per ml. To block non-specific binding, human […] is added to the cells to a concentration of 1 μg per 10^5 cells. Next, 200 μl (1×10^5 cells) are added to 5 ml polypropylene round-bottom tubes (Falcon 2063 tubes). Compound #1 (Example 1) (lot 31-190) is added to the cells at final concentrations of 0.5, 5, 10, and 50 μM. To achieve a final concentration of 0.5 μM, 2.2 μl of 50 μM Compound #1 plus 19.8 μl of PBS/BSA are added to 200 μl of cells. To achieve a final concentration of 5 μM, 22 μl of 50 μM Compound #1 are added to 200 μl of cells. To achieve a final concentration of 10 μM, 4.4 μl of 500 μM Compound #1 plus 17.6 μl of PBS/BSA are added to 200 μl of cells. To achieve a final concentration of 50 μM, 22 μl of 500 μM Compound #1 are added to 200 μl of cells. Other aliquots of cells are treated with either 1 or 5 μM of the bicyclam CXCR4 antagonist AMD-3100 (Sigma Aldrich, catalog #A5602). To achieve a final concentration of 1 μM AMD-3100, 4.4 μl of 50 μM AMD-3100 plus 17.6 μl of PBS/BSA are added to 200 μl of cells and to achieve a final concentration of 5 μM, 22 μl of 50 μM AMD-3100 are added to 200 μl of cells. In addition, one tube of cells is treated with 1 μg/ml of SDF-1α (R&D Systems catalog #350-NS), the natural ligand of CXCR4. The tubes are placed at 4° C. for 15 minutes. Subsequently, each tube receives 10 μl of anti-CXCR4-PE, except one tube of cells receives 10 μl of mouse IgG 2A isotype control antibody. The tubes are incubated at 4° C. for 45 minutes. The cells are washed twice with PBS plus 0.05% BSA and the final cell pellet is resuspended in 100 μl of PBS/BSA. To fix the samples, 100 μl of 2% formaldehyde (Polysciences, Inc. ultrapure EM grade, catalog number 04018) are added to each tube. Flow cytometry is performed using a Cytomation MoFlo instrument.

E-selectin/Ig chimera = test: E-selectin competitive binding assay (sLe^a polyacrylamide conjugate); settings: FIGS. 4 and 5
Protocol: The inhibition assay to screen glycomimetic antagonists of E-selectin is a competitive binding assay, which allows the determination of IC50 values. Briefly, E-selectin/Ig chimera is immobilized by incubation at 37° C. in 96 well microtiter plates for 2 hours. To reduce nonspecific binding, bovine serum albumin is added to each well and incubated at room temperature for 2 hours. The plate is washed and serial dilutions of the test compounds are added to the wells in the presence of conjugates of biotinylated, sLe^a polyacrylamide with streptavidin/horseradishperoxidase and incubated for 2 hours at room temperature. To determine the amount of sLe^a bound to immobilized E-selectin after washing, the peroxidase substrate, 3,3′,5,5′ tetramethylbenzidin (TMB) is added. After 3 minutes, the enzyme reaction is stopped by the addition of H3PO4 and the absorbance of light at a wavelength of 450 nm is determined. The concentration of test compound required to inhibit binding by 50% is determined and reported as the IC50 value for each glycomimetic E-selectin antagonist. In addition to reporting the absolute IC50 value as measured above, relative IC50 values are determined by a ratio of the IC50 measured for the test compound to that of an internal control (reference) stated for each assay.

T1 sequence (P61073 whole entry): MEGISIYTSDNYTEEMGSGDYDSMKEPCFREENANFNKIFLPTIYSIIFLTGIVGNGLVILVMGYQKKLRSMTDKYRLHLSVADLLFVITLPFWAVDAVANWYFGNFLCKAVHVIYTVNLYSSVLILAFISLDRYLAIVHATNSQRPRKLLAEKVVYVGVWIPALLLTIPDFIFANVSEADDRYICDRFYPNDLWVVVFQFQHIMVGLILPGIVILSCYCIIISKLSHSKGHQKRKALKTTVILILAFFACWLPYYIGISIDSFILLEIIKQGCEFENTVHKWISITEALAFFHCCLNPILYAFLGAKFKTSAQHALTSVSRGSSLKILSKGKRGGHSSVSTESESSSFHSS

In the case of c1cc(CN2CCCNCCNCCCNCC2)ccc1CN1CCCNCCNCCCNCC1 [AMD-3100, reference compound], the “% positive” value ([1]; 1 μM inhibitor) was 57.57%, the Mean fluorescence intensity ([1]; 1 μM inhibitor) was 15.60 and the Median fluorescence intensity ([1]; 1 μM inhibitor) was 7.77. For the same compound, the “% positive” value ([1]; 5 μM inhibitor) was 12.42%, the Mean fluorescence intensity ([1]; 5 μM inhibitor) was 9.98 and the Median fluorescence intensity ([1]; 5 μM inhibitor) was 3.92.

In the case of CC1CC(C(=O)NCCNCc2ccc(CN3CCCNCCNCCCNCC3)cc2)CC(OC2OC(CO)C(O)C(O[C@@H](CC3CCCCC3)C(=O)O)C2OC(=O)c2ccccc2)C1OC1OC(C)C(O)C(O)C1O (stereo partly shown) [Compound #1], the “E-selectin antagonist activity (in words)” value (E-selectin/Ig chimera) was “potent E-selectin antagonist”, the “Inhibition of binding of anti-CXCR4-PE antibody to CXCR4 (in words)” value [1] was “inhibits binding of anti-CXCR4-PE to SupT1 cells in a dose-dependent manner” and the “% positive” value ([1]; 0.5 μM inhibitor) was 98.69%. The Mean fluorescence intensity ([1]; 0.5 μM inhibitor) was 68.49, the Median fluorescence intensity ([1]; 0.5 μM inhibitor) was 54.25 and the “% positive” value ([1]; 5 μM inhibitor) was 81.48%. The Mean fluorescence intensity ([1]; 5 μM inhibitor) was 22.25, the Median fluorescence intensity ([1]; 5 μM inhibitor) was 13.34 and the “% positive” value ([1]; 10 μM inhibitor) was 42.06%. For the same compound, the Mean fluorescence intensity ([1]; 10 μM inhibitor) was 14.08, the Median fluorescence intensity ([1]; 10 μM inhibitor) was 6.04 and the “% positive” value ([1]; 50 μM inhibitor) was 12.80%. The Mean fluorescence intensity ([1]; 50 μM inhibitor) was 11.08, the Median fluorescence intensity ([1]; 50 μM inhibitor) was 3.92 and the pIC50 ([1]; anti-CXCR4-PE clone 12G5, 4° C.) was 5.08.

In the case of SDF-1α, the “Inhibition of binding of anti-CXCR4-PE antibody to CXCR4 (in words)” value [1] was “efficiently inhibits binding”, the “% positive” value ([1]; 1 μg/ml inhibitor) was 12.37% and the Mean fluorescence intensity ([1]; 1 μg/ml inhibitor) was 10.25. For the same compound, the Median fluorescence intensity ([1]; 1 μg/ml inhibitor) was 4.07.
